Measurements: patent US6825348B2, “Antiviral compounds” (Academia Sinica, priority 2002, dated 2004)
In brackets after ≈: the same amount, converted by molar mass. Where two headings read alike, the source gives them in different places.

Tests used:
[1] = system: Vero cells; details: African green monkey
[2] = system: thymidine kinase-positive (TK+) varicella-zoster virus (YS); assay: Inhibition of TK+ VZV cytopathogenicity in Vero cell culture; format: cell-based
[3] = system: human cytomegalovirus (AD-169); assay: Inhibition of HCMV cytopathogenicity in Vero cell culture; format: cell-based; details: Human betaherpesvirus 5, AD169; Vero cell culture; 50% inhibition of cytopathogenicity; for 1:1 mixtures IC50 refers to known antiviral drugs; read-out: IC50 HCMV (AD-169)
[4] = system: Vero cell thymidine kinase; assay: Phosphorylation of nucleosides by Vero cell thymidine kinase; format: biochemical; details: for Km: apparent Km, 37° C., pH 7.5; for rel. Vmax, Vero cell thymidine kinase: relative to thymidine = 1.0 × 10^2
[5] = biological target: T1, calf mucosal adenosine deaminase (ADA, EC 3.5.4.4) (Bos taurus, UniProt P56658); assay: Substrate activity and competitive inhibition of adenosine deaminase; format: biochemical; details: for type of ADA inhibition in words: ara-A used as substrate; for rel. Vmax: compound as ADA substrate, relative to ara A 3 = 1.0; for Ki: inhibition of ADA with ara-A 3 as substrate
T1 sequence (P56658 1-363): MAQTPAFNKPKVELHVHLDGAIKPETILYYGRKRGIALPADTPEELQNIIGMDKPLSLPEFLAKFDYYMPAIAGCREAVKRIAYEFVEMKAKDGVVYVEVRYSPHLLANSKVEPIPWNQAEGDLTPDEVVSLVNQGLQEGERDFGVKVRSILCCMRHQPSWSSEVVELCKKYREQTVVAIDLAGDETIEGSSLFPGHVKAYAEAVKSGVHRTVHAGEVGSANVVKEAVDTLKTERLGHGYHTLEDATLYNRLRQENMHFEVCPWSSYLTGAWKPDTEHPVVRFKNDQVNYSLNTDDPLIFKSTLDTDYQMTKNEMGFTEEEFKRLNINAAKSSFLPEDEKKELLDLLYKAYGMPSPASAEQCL

[6] = system: herpes simplex type 1 virus (HSV-1) (KOS); assay: Inhibition of HSV-1 cytopathogenicity in Vero cell culture; format: cell-based; details: Human alphaherpesvirus 1, Vero, read-out: IC50 HSV-1 (KOS)
[7] = Lipophilicity, 1-octanol/water partition coefficient; details: 1-octanol/water (0.10 M phosphate buffer)
[8] = biological target: HSV thymidine kinase (Human herpesvirus 1, UniProt P0DTH5); assay: Phosphorylation of nucleosides by HSV thymidine kinase; format: biochemical
[9] = system: thymidine kinase-deficient (TK−) varicella-zoster virus (YS/R); assay: microbe, parasite or virus in culture; format: cell-based; details: Human alphaherpesvirus 3, Vero, read-out: IC50 TK−VZV (YS/R)
[10] = Solubility in water (phosphate buffer, UV absorbance); details: phosphate buffer, pH 6.8, aqueous buffer, thermodynamic from solid
[11] = system: HeLa cells; details: human
[12] = system: HSV-1 (KOS); assay: Anti-HSV-1 activity in vivo, HSV-1-induced mortality in NMRI mice; details: 6 days; for mean day of animal death / mean day of symptom initiation: terminated day 21; for responders at 100 mg/kg / responders at 150 mg/kg / responders at 250 mg/kg: Human alphaherpesvirus 1, ip, 504 h; for protection against HSV-induced mortality: 150 mg/kg dose level i.p.
[13] = LD50 and toxicity in mice, intraperitoneal
[14] = system: HIV-2 (LAV-2); assay: Inhibition of HIV-2 cytopathogenicity in MT4 cells; format: cell-based, human immunodeficiency virus; details: Human immunodeficiency virus 2; MT4 cells, average of duplicates; read-out: IC50 HIV-2 (LAV-2)
[15] = system: moloney murine sarcoma virus (MSV); assay: Inhibition of MSV cytopathogenicity in CEM cells (cell-protection assay); format: cell-based; details: Moloney murine sarcoma virus, CCRF-CEM; CEM cells, average of duplicates; read-out: IC50 MSV
[16] = system: MT4 cells; assay: Toxicity toward MT4 cells
[17] = system: CEM cells; assay: Toxicity toward CEM cells
[18] = system: HIV-1 (IIIB); assay: microbe, parasite or virus in culture; format: cell-based; details: Human immunodeficiency virus 1, IIIB; MT4 cells, average of duplicates; read-out: IC50 HIV-1 (IIIB)
[19] = mixture with acyclovir 2 (w/w=1:1)
[20] = 100 mg/kg/day i.p., read-out: percentage of HSV-1-infected mice alive at day 21 postinfection
[21] = 100 mg/kg/day i.p., read-out: percentage of HSV-1-infected mice without symptoms at day 21 postinfection
[22] = 150 mg/kg/day i.p., read-out: percentage of HSV-1-infected mice alive at day 21 postinfection
[23] = 150 mg/kg/day i.p., read-out: percentage of HSV-1-infected mice without symptoms at day 21 postinfection
[24] = 250 mg/kg/day i.p., read-out: percentage of HSV-1-infected mice alive at day 21 postinfection
[25] = 250 mg/kg/day i.p., read-out: percentage of HSV-1-infected mice without symptoms at day 21 postinfection

Chain of HSV thymidine kinase (P0DTH5 whole entry, looked up): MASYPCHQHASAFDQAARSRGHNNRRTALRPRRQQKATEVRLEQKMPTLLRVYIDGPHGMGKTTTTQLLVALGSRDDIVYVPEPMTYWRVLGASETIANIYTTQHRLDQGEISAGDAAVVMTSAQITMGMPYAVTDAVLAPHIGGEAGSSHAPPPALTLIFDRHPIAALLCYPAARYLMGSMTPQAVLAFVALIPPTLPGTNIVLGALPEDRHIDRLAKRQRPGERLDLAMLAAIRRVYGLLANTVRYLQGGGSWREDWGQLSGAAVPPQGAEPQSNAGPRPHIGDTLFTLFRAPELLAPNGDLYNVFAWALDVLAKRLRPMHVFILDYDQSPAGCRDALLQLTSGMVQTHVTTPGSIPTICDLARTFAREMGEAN

Compound | Vero cell, concentration causing microscopically visible change or disruption in about 50% of the cell sheet [1] [µg/mL] | IC50 TK+VZV (YS) [2] [µg/mL] | IC50 [3] [µg/mL] | Km [4] [mM] | rel. Vmax, Vero cell thymidine kinase [4] | IC50 [6] [µg/mL] | logP at […] [7] | rel. Vmax, HSV thymidine kinase [8] | IC50 [9] [µg/mL] | solubility at 20 h [10] [µg/mL] | HeLa cell, concentration causing microscopically visible change or disruption in about 50% of the cell sheet [11] [µg/mL] | mean day of animal death ([12]; 100 mg/kg/day i.p.) [days] | mean day of symptom initiation ([12]; 100 mg/kg/day i.p.) [days] | mean day of animal death ([12]; 150 mg/kg/day i.p.) [days] | mean day of symptom initiation ([12]; 150 mg/kg/day i.p.) [days] | mean day of animal death ([12]; 250 mg/kg/day i.p.) [days] | mean day of symptom initiation ([12]; 250 mg/kg/day i.p.) [days] | responders at 100 mg/kg [12, 20] [%] | responders at 100 mg/kg [12, 21] [%] | responders at 150 mg/kg [12, 22] [%] | further results
Nc1ncnc2c1ncn2COCCO [Compound 1, 9-[(2-Hydroxyethoxy)methyl]adenine, reference compound] | 209 | 7.0 (≈ 33.5 µM) | 4.8 (≈ 22.9 µM) | > 30 | <3.0 | 4.5 (≈ 21.5 µM) | 0.98 | <3.0 | 9 (≈ 43 µM) | 2560 (≈ 12200 µM) | 196 | – | – | – | – | – | – | – | – | – | ADA substrate / inhibitor property in words [5]: functioned as ADA substrates; type of ADA inhibition in words [5]: competitive inhibition; rel. Vmax [5]: 1.48 × 10^−2; Ki [5]: 141 µM; effect on the rate of phosphorylation of acyclovir 2 in words [8, 19]: did not induce any increase
Nc1nc2ncn(COCCO)c2c(=O)[nH]1 [Compound 9, 7-[(2-Hydroxyethoxy)methyl]guanine] | 99 | 13 (≈ 57.7 µM) | 16 (≈ 71 µM) | 0.0183 | 12.0 | 1.1 (≈ 4.88 µM) | -0.6 | 28.0 | 38 (≈ 169 µM) | 320 (≈ 1420 µM) | 114 | 14.1 ± 0.8 | 10.9 ± 0.6 | 16.0 ± 1.5 | 13.0 ± 1.1 | 18.5 ± 1.0 | 15.1 ± 1.2 | 66 | 48 | 78 | responders at 150 mg/kg [12, 23]: 57%; responders at 250 mg/kg [12, 24]: 90%; responders at 250 mg/kg [12, 25]: 67%
Nc1ncnc2ncn(COCCO)c12 [Compound 14, 7-[(2-Hydroxyethoxy)methyl]adenine] | 496 | 1.1 (≈ 5.26 µM) | 1 (≈ 4.78 µM) | > 30 | <3.0 | 0.58 (≈ 2.77 µM) | 1.24 | <3.0 | 0.97 (≈ 4.64 µM) | 4710 (≈ 22500 µM) | 472 | 19.8 ± 1.7 | 17.5 ± 2.1 | >21 | 19.9 ± 1.3 | >21 | >21 | 95 | 80 | 100 | protection against HSV-induced mortality [12]: full protection; responders at 150 mg/kg [12, 23]: 88%; responders at 250 mg/kg [12, 24]: 100%; responders at 250 mg/kg [12, 25]: 100%; LD50 ([13]; NMRI, mouse, in vivo, ip): 950 mg/kg; level up to which no toxicity was shown ([13]; mice, intraperitoneal): 400 mg/kg; ADA substrate / inhibitor property in words [5]: functioned as ADA substrates; type of ADA inhibition in words [5]: competitive inhibition; rel. Vmax [5]: 1.50 × 10^−6; Ki [5]: 8.3 µM; increase on the rate of phosphorylation of acyclovir 2 by HSV thymidine kinase [8, 19]: 2 fold
Nc1nc2c(ncn2CCOCP(=O)(O)O)c(=O)[nH]1 [PMEG 27, 9-[2-(phosphonomethoxy)ethyl]guanine, reference compound] | 7.0 | 0.040 (≈ 0.138 µM) | 0.35 (≈ 1.21 µM) | – | – | 4.6 (≈ 15.9 µM) | 0.14 | – | 0.06 (≈ 0.207 µM) | 360 (≈ 1240 µM) | 9.1 | – | – | – | – | – | – | – | – | – | IC50 [14]: 18 µg/mL (≈ 62.2 µM); IC50 [15]: 0.19 µg/mL (≈ 0.657 µM); MT4 cell, concentration reducing the number of viable uninfected cells by 50% [16]: 16 µg/mL; CEM cell, concentration reducing the number of viable uninfected cells by 50% [17]: 12 µg/mL; IC50 [18]: 16 µg/mL (≈ 55.3 µM)
Nc1nc2c(ncn2COCCO)c(=O)[nH]1 [acyclovir 2, 9-[(2-hydroxyethoxy)methyl]guanine, reference compound] | 269 | – | 32 (≈ 142 µM) | 22 | <3.0 | 0.46 (≈ 2.04 µM) | -0.48 | 39.2 | – | 400 (≈ 1780 µM) | 259 | 18.9 ± 2.1 | 15.6 ± 1.6 | >21 | 19.1 ± 1.3 | >21 | >21 | 80 | 65 | 100 | protection against HSV-induced mortality [12]: full protection; responders at 150 mg/kg [12, 23]: 86%; responders at 250 mg/kg [12, 24]: 100%; responders at 250 mg/kg [12, 25]: 100%
Cc1cn([C@H]2C[C@H](O)[C@@H](CO)O2)c(=O)[nH]c1=O [thymidine] | – | – | – | 0.001 | 1.0 × 10^2 | – | – | – | – | – | – | – | – | – | – | – | – | – | – | – | –
